Results taken from ChEMBL document CHEMBL1201862, “PubChem BioAssay data set” (2004).
Active and inactive are the calls of the source.

How the values were obtained:
[1] = biological target: Beta-galactosidase (Escherichia coli, UniProt Q8VNN2); assay: PubChem AID 485352; assay type: functional
[2] = M. tuberculosis H37Rv growth inhibitors, H37Rv strain (AID 1626); assay type: functional
[3] = biological target: Type-1 angiotensin II receptor (Homo sapiens, UniProt P30556); assay: antagonism of angiotensin II type 1 receptor – cell-based, uHTS hits, selectivity assay for APJ receptor antagonist project, dose response (AID 463214); assay type: functional;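 also: antagonist potency against angiotensin II stimulated AT1 response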
Type-1 angiotensin II receptor, sequence (P30556 whole entry): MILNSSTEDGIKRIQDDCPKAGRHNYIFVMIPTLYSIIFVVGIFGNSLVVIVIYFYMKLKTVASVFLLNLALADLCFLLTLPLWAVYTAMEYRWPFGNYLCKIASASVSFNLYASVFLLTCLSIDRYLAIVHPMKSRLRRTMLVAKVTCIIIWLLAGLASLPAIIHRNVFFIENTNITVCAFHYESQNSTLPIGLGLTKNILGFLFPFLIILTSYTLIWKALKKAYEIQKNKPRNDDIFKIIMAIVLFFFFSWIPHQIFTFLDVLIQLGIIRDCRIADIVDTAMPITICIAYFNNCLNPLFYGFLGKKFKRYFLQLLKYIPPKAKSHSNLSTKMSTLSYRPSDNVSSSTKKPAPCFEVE

[4] = tested on: A-375; assay: MITF: Counter assay: A375 proliferation Measured in Cell-Based System Using Plate Reader - 2084-03_Inhibitor_Dose_DryPowder_Activity. [Related pubchem assays (depositor defined):AID488944]; assay type: functional; settings: Homo sapiens
[5] = tested on: A-375; assay: proliferation inhibition in MITF-low A375 cells – cell-based, cherry-pick samples, set 2, counter-screen for MITF modulator project, dose response (AID 540335); assay type: functional; settings: Homo sapiens
[6] = Trypanosoma cruzi growth suppression in host cells – NIH3T3 host cells, beta-gal luminescence, confirmation (AID 2044); assay type: functional, cell-based;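 also: intracellular parasites grown in NIH/3T3 mouse fibroblasts as host cells; luminescent beta-galactosidase reporter signal from transgenic T. cruzi replicating inside host cells; inhibitors lower the luminescence signal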
[7] = NIH3T3 cell viability loss – ATP luminescence, mouse fibroblasts, counter-screen, dose response (AID 2010); assay type: functional, cell-based;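 also: cells exposed to compound for about 90 hours before reading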
[8] = biological target: T1, Heat shock factor protein 1 (Mus musculus, UniProt P38532); assay: enhancement of HSF1-driven luciferase signal – cell-based, NIH3T3, luminescence, dose retest, confirmation (AID 435004); assay type: functional;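 also: stress induced by proteasome inhibitor MG132 added 30 min after compound; luciferase reporter driven by HSF1 response element in NIH3T3 cells; actives raise luminescence as potentiators of the MG132 stress response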
T1 sequence (P38532 whole entry): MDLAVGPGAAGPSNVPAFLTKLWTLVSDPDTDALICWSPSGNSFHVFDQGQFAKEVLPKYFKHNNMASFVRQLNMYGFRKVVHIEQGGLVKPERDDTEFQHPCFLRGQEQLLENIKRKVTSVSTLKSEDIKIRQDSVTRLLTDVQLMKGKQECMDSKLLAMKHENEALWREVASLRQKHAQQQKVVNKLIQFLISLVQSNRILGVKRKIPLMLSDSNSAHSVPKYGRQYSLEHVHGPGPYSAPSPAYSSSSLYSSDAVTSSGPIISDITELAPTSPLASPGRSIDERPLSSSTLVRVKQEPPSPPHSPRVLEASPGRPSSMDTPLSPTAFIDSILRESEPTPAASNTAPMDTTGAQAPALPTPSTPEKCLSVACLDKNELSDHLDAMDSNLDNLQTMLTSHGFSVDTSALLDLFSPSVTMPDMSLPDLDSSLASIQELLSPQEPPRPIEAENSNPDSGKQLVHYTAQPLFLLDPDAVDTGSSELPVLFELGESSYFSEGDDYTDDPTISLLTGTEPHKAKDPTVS

[9] = viability loss in HepG2 hepatoma cells – cell-based, ATP luminescence, cherry-pick, activator set 2, cytotoxicity control, dose response (AID 1053143); assay type: functional
[10] = biological target: T2, Hexokinase-1 (Homo sapiens, UniProt P19367); assay: SAR analysis of small molecule inhibitors of hexokinase domain containing I (HKDC1) in the hexokinase 1 selectivity assay. [Related pubchem assays (depositor defined):AID493160, AID493190]; assay type: functional
T2 sequence (P19367 whole entry): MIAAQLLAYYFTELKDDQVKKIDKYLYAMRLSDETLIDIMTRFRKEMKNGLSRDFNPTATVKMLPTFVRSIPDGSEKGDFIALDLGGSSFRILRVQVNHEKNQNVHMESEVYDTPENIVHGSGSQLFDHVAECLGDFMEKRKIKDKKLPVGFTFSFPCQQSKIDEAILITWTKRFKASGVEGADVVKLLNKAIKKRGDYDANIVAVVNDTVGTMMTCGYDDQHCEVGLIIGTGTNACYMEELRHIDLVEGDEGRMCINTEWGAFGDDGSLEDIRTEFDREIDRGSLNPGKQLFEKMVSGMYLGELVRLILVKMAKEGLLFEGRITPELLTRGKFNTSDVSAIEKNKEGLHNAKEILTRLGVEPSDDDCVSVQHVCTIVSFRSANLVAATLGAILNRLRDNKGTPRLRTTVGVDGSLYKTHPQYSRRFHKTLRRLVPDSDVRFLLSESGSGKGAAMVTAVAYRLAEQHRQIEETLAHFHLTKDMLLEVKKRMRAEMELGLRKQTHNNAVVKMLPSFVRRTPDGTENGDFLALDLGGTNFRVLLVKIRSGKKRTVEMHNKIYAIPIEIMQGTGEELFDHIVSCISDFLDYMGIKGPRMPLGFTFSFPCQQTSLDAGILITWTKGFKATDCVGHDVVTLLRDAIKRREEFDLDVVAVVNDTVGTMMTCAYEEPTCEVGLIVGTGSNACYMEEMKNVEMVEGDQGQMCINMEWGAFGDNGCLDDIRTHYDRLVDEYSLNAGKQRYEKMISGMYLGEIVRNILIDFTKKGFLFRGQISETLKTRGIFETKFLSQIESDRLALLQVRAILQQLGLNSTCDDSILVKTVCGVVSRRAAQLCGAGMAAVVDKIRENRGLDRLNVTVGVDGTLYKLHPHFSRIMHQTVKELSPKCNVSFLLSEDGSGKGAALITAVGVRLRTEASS

[11] = biological target: T3, Hexokinase HKDC1 (Homo sapiens, UniProt Q2TB90); assay: SAR analysis of small molecule inhibitors of hexokinase domain containing I (HKDC1). [Related pubchem assays (depositor defined):AID493160, AID493190]; assay type: functional
T3 sequence (Q2TB90 whole entry): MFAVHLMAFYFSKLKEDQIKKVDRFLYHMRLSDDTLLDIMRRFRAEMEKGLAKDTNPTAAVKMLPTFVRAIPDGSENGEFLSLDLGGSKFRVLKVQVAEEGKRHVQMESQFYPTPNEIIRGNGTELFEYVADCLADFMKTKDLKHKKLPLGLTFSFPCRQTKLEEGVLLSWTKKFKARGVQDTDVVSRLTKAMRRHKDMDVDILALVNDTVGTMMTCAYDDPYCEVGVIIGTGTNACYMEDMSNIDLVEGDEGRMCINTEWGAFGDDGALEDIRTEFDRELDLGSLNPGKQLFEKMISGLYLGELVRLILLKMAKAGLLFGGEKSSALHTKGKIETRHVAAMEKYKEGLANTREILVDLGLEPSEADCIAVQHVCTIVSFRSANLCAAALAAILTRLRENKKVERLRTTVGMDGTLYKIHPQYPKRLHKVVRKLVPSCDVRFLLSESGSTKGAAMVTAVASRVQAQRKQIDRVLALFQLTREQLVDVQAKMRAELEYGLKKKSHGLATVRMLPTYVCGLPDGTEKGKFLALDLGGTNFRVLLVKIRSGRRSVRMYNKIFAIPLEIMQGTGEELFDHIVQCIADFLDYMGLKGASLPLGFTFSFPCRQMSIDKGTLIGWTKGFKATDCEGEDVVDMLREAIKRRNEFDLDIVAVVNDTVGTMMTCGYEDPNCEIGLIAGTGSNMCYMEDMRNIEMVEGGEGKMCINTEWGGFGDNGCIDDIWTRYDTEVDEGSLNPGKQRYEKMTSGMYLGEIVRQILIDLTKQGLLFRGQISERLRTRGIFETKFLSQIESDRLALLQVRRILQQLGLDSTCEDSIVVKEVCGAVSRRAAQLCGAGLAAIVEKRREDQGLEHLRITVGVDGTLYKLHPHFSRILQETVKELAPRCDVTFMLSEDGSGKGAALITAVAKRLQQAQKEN

[12] = viability of PTEN-deleted HCT116 cells – cell-based, HCT116 PTEN knockout, dose response (AID 1047); assay type: functional;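 also: HCT116 colon tumor cells with PTEN knocked out; cells exposed to compound for 60 hours before readout; potency for loss of cell viability measured by luminescence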
[13] = viability of HCT116 lacking mutant beta-catenin – cell-based, human colon tumor, dose response (AID 1045); assay type: functional;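 also: HCT116 colon tumor cells with beta catenin knocked out; cells exposed to compound for 60 hours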
[14] = THP-1 cell cytotoxicity, dose response, cytotoxicity control for non-replicating M. tuberculosis project (AID 489025); assay type: functional
[15] = Luminescence Cell-Based Dose Retest to Confirm Inhibitors of Cancer Stem Cells. [Related pubchem assays (depositor defined):AID2717, AID2721]; assay type: functional; settings: Homo sapiens
[16] = HepG2 cell cytotoxicity, dose response, cytotoxicity control for non-replicating M. tuberculosis project (AID 489018); assay type: functional; settings: Mycobacterium tuberculosis
[17] = Vero E6 cell cytotoxicity, dose response, cytotoxicity control for non-replicating M. tuberculosis project, secondary assay (AID 492998); assay type: functional, VeroE6; settings: Vero C1008
[18] = biological target: T4, Microphthalmia-associated transcription factor (Homo sapiens, UniProt O75030); assay: reducers of TRPM1 reporter luminescence, concentration series – cell-based, SK-MEL-5, cherry-picked, set 3, MITF inhibitor project, dose response (AID 493073); assay type: functional;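 also: SK-MEL-5 melanoma cells with luciferase driven by the MITF target TRPM1 promoter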
T4 sequence (O75030 whole entry): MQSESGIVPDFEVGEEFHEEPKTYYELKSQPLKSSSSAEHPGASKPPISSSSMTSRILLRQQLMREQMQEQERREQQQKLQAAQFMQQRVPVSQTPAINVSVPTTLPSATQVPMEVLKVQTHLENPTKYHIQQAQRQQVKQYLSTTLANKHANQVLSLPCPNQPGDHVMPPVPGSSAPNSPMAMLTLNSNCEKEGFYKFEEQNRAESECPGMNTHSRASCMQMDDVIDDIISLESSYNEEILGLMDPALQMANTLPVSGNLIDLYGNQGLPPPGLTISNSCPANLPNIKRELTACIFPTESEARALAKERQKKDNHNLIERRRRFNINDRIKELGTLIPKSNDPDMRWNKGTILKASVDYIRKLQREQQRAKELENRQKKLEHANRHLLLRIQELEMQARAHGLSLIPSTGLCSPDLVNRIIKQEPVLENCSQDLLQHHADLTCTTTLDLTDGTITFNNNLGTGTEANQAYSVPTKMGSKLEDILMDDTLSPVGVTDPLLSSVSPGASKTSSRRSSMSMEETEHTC

[19] = cells; assay type: functional
[20] = tested on: INS1; assay: INS-1E survival protection against cytokine death – cell-based, luminescence, retest, dose response (AID 449756); assay type: functional; settings: Rattus norvegicus, INS1;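 also: cell death triggered by IL-1 beta plus TNF-alpha plus IFN-gamma mixture; protective hits raise ATP signal compared with cytokine alone wells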
[21] = biological target: T5, Ubiquitin-conjugating enzyme E2 N (Homo sapiens, UniProt P61088); assay type: functional;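 also: Dose-response confirmation in a TR-FRET assay detecting UBC13-driven polyubiquitin chain formation, inhibition measured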
T5 sequence (P61088 whole entry): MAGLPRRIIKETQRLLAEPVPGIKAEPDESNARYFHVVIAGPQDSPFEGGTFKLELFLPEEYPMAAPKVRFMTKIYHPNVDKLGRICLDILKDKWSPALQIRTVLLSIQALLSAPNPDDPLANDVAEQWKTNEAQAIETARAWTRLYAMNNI

Beta-galactosidase, sequence (Q8VNN2 whole entry): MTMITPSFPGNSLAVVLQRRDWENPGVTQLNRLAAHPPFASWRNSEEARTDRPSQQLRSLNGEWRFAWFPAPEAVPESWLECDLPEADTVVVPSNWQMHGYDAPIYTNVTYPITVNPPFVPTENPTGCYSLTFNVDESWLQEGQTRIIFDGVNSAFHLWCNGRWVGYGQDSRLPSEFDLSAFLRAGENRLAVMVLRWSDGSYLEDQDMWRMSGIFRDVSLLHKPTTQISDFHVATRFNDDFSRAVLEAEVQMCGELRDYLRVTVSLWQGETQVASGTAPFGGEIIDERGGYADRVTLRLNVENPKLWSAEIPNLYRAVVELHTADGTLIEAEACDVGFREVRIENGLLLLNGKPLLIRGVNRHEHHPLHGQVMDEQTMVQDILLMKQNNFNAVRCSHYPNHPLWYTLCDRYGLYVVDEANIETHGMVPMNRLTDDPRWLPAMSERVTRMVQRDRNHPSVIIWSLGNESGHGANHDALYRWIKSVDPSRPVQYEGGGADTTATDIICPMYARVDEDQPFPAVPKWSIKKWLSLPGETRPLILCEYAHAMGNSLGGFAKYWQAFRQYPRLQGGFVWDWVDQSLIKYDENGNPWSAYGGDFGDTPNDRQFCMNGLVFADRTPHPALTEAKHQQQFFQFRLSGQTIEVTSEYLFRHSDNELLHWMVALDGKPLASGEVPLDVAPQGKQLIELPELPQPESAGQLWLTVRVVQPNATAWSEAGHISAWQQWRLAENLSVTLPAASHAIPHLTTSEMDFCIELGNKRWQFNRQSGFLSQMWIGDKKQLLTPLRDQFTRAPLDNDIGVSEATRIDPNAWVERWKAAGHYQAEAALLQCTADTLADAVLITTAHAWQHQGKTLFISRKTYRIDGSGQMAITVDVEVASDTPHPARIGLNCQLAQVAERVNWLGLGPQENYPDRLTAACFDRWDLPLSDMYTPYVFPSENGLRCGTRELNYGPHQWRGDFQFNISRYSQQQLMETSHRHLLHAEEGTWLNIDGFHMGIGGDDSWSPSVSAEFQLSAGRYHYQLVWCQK

Structure (SMILES): Cc1ccc(C(=O)CNc2ccc(C)c(Cl)c2)cc1
- EC50 [1]: > 40 µM (inactive)
- IC50 [2]: > 100 µM (active)
- IC50 [3]: 5.43 µM (active)

Structure (SMILES): C#Cc1cccc(NC(=O)CSc2nnc(-c3ccc(C(F)(F)F)cn3)o2)c1
- AC50 [4]: > 11 µM (active)
- AC50 [5]: > 11 µM (active)

Structure (SMILES): CCOc1cccc(/C=C/c2ccc3cccc(O)c3n2)c1OC
- EC50 [1]: > 40 µM (inactive)
- EC50 [6]: 2.48 µM (active)
- IC50 [3]: 16.6 µM (active)
- EC50 [7]: 4.48 µM (active)
- EC50 [8]: 27.7 µM (active)
- AC50 [9]: 26 µM (active)

Structure (SMILES): Cc1ccc(C(=O)Nc2nnc(SCc3ccc(C#N)cc3)s2)cc1
- IC50 [10]: > 80 µM (inactive)
- IC50 [11]: > 80 µM (inactive)

Structure (SMILES): COc1cc(CNC2CCCC2)cc(Cl)c1OCc1ccccc1Cl
- EC50 [6]: 1.17 µM (active)
- EC50 [12]: 14.6 µM (active)
- EC50 [7]: 13.8 µM (active)
- EC50 [13]: 12.1 µM (active)
- CC50 [14]: 18.3 µM (active)
- AC50 [15]: 5.89 µM (active)
- CC50 [16]: 19.1 µM (active)
- CC50 [17]: > 20 µM (active)
- AC50 [18]: 17.7 µM (active)
- IC50 [19]: 16.8 µM (active)
- AC50 [4]: 17.5 µM (active)
- AC50 [20]: 7.36 µM (active)

Structure (SMILES): COc1ccc(C[C@H]2CN3C(=NC[C@@H]3C(C)C)N2CCNC(=O)c2ccc(C)c(Br)c2)cc1
- IC50 [21]: > 20 µM (inactive)
- AC50 [5]: 34.3 µM (active)

Structure (SMILES): O=c1c2ccccc2nc(/C=C/c2ccc(Br)cc2)n1Cc1ccccc1
- IC50 [10]: > 80 µM (inactive)
- IC50 [11]: > 80 µM (inactive)
